Where a name gives a salt, the structure may show the parent alone. Read-outs that look alike come from different tables or passages of the source.
Legend:
SARS‐CoV PL^pro = SARS‐CoV PL^pro (Severe acute respiratory syndrome coronavirus, UniProt P0C6X7); test: biochemical; type: biochemical
SARS‐CoV‐2 PL^pro = SARS‐CoV‐2 PL^pro (Severe acute respiratory syndrome coronavirus 2, UniProt P0DTD1); test: biochemical; type: biochemical
in vitro = conditions: African green monkey
SARS‐CoV‐2 = test: microbe, parasite or virus in culture; type: cell-based; conditions: for EC50: Severe acute respiratory syndrome coronavirus 2, Vero C1008, 24 h, read-out: EC50 inhibition of SARS‐CoV‐2 replication
[1] = read-out: Percentage inhibition SARS‐CoV‐2 PL^pro
[2] = read-out: Inhibition SARS‐CoV PL^pro, class (Table 1)
[3] = read-out: Inhibition SARS‐CoV‐2 PL^pro, class (Table 1)
[4] = read-out: Percentage inhibition SARS‐CoV PL^pro
[5] = read-out: Inhibition SARS‐CoV‐2 PL^pro, class (Table 2)
[6] = read-out: Inhibition SARS‐CoV PL^pro, class (Table 2)

## 2‐Methyl‐N‐(naphth‐1‐ylethyl]benzamide [Compound 4 b]
SARS‐CoV PL^pro
  Inhibition of SARS‐CoV PL^pro, in words: inactive
SARS‐CoV PL^pro; 100 µM
  Inhibition SARS‐CoV PL^pro, class (Table 1): n.a.^[b] (key: Compounds with inhibitory effect less than 50 % at 100 μM compared to DMSO were labelled as not active (n.a.))

## Cc1ccccc1C(=O)N[C@H](C)c1cccc2ccccc12 [Compound 2 a, 2‐Methyl‐N‐[(1R)‐naphth‐1‐ylethyl]benzamide, reference compound]
SARS‐CoV‐2 PL^pro
  IC50: 6.9 ± 0.7 µM

## C[C@@H](NC(=O)c1ccccc1)c1cccc2ccccc12 [Compound 2 c, N ‐[(1R)‐1‐Naphth‐1‐ylethyl]benzamide]
SARS‐CoV PL^pro
  IC50: 62 ± 5 µM
other
  melting point: 195 °C
SARS‐CoV‐2 PL^pro; [1]
  inhibition at 100 µM: 60%

## C[C@@H](NC(=O)c1ccccc1C(F)(F)F)c1cccc2ccccc12 [Compound 2 d, N ‐[(1R)‐1‐Naphth‐1‐ylethyl]‐2‐(trifluormethyl)benzamide]
SARS‐CoV PL^pro; [2]
  inhibition at 100 µM: < 50%

## C[C@@H](NC(=O)c1ccccc1C#N)c1cccc2ccccc12 [Compound 2 e, (R)‐2‐Cyano‐N‐(1‐(naphth‐1‐yl)ethyl)benzamide]
SARS‐CoV PL^pro
  IC50: 18 ± 2 µM
other
  melting point: 181 °C
SARS‐CoV‐2 PL^pro; [3]
  inhibition at 100 µM: < 50%

## C[C@@H](NC(=O)c1ccccc1F)c1cccc2ccccc12 [Compound 2 f, 2‐Fluor‐N‐[(1R)‐1‐naphth‐1‐ylethyl]benzamide]
SARS‐CoV PL^pro
  IC50: 9 ± 1 µM
other
  melting point: 135 °C
SARS‐CoV‐2 PL^pro; [1]
  inhibition at 100 µM: 67%

## C[C@@H](NC(=O)c1ccccc1Br)c1cccc2ccccc12 [Compound 2 g, 2‐Bromo‐N‐[(1R)‐1‐naphth‐1‐ylethyl]benzamide]
SARS‐CoV PL^pro
  IC50: 11 ± 2 µM
other
  melting point: 153 °C
SARS‐CoV‐2 PL^pro; [1]
  inhibition at 100 µM: 73%

## C[C@@H](NC(=O)c1ccccc1I)c1cccc2ccccc12 [Compound 2 h, 2‐Iodo‐N‐[(1R)‐1‐naphth‐1‐ylethyl]benzamide]
SARS‐CoV PL^pro
  IC50: 25 ± 3 µM
other
  melting point: 161 °C
SARS‐CoV‐2 PL^pro; [3]
  inhibition at 100 µM: < 50%

## C[C@@H](NC(=O)C1CCCCC1)c1cccc2ccccc12 [Compound 2 j, N ‐[(1R)‐1‐Naphth‐1‐ylethyl]cyclohexanecarboxamide]
SARS‐CoV PL^pro
  Inhibition of SARS‐CoV PL^pro, in words: inactive
SARS‐CoV PL^pro; [2]
  inhibition at 100 µM: < 50%
other
  melting point: 170 °C

## C[C@@H](NC(=O)C(C)(C)C)c1cccc2ccccc12 [Compound 2 k]
SARS‐CoV PL^pro
  Inhibition of SARS‐CoV PL^pro, in words: inactive
SARS‐CoV PL^pro; [2]
  inhibition at 100 µM: < 50%
other
  melting point: 131 °C

## C[C@@H](NC(=O)Cc1ccccc1)c1cccc2ccccc12 [Compound 2 l, N ‐[(1R)‐1‐Naphth‐1‐ylethyl]‐2‐phenylacetamid]
SARS‐CoV PL^pro; [4]
  inhibition at 100 µM: 57%
other
  melting point: 130 °C

## C[C@@H](NC(=O)C(c1ccccc1)c1ccccc1)c1cccc2ccccc12 [Compound 2 m, (R)‐N‐(1‐(naphthalen‐1‐yl)ethyl)‐2,2‐diphenylacetamide]
SARS‐CoV PL^pro
  Inhibition of SARS‐CoV PL^pro, in words: no inhibition
SARS‐CoV PL^pro; [2]
  inhibition at 100 µM: < 50%
other
  melting point: 152 °C

## Cc1ccsc1C(=O)N[C@H](C)c1cccc2ccccc12 [Compound 2 n, 3‐Methyl‐N‐[(1R)‐1‐naphth‐1‐ylethyl]thiophene‐2‐carboxamide]
SARS‐CoV PL^pro
  IC50: 14 ± 1 µM
In vitro
  CC50: > 500 µM
SARS‐CoV‐2
  SI (selectivity index): >105
  EC50: 4.74 ± 1.35 µM
SARS‐CoV‐2 PL^pro
  IC50: 42 ± 6 µM

## Cc1cc(NC(=O)OC(C)(C)C)ccc1C(=O)N[C@H](C)c1cccc2ccccc12 [Compound 2 o, (R)‐tert‐Butyl(3‐Methyl‐4‐((1‐(naphth‐1‐yl)ethyl)carbamoyl)phenyl)carbamate]
SARS‐CoV PL^pro
  IC50: 1.6 ± 0.3 µM

## Cc1cc(N)ccc1C(=O)N[C@H](C)c1cccc2ccccc12.Cl [Compound 2 p, (R)‐4‐Amino‐2‐methyl‐N‐[1‐(naphth‐1‐yl)ethyl]benzamide hydrochloride]
other
  melting point: 231 °C
In vitro
  CC50: > 500 µM
SARS‐CoV‐2
  SI (selectivity index): >31.7
  EC50: 15.8 ± 1.59 µM
SARS‐CoV‐2 PL^pro
  IC50: 7.5 ± 0.6 µM

## Cc1ccc(NC(=O)OC(C)(C)C)cc1C(=O)N[C@H](C)c1cccc2ccccc12 [Compound 2 q, (R)‐tert‐Butyl (4‐Methyl‐3‐((1‐(naphth‐1‐yl)ethyl)carbamoyl)phenyl) carbamate]
SARS‐CoV PL^pro
  IC50: 4.6 ± 0.4 µM

## Cc1ccc(N(C)C)cc1C(=O)N[C@H](C)c1cccc2ccccc12 [Compound 2 r, (R)‐5‐(Dimethylamino)‐2‐methyl‐N‐[1‐(naphth‐1‐yl)ethyl]benzamide]
SARS‐CoV PL^pro
  IC50: 4 ± 0.2 µM
SARS‐CoV‐2 PL^pro
  IC50: 10 ± 2 µM

## Cc1cc(NS(C)(=O)=O)ccc1C(=O)N[C@H](C)c1cccc2ccccc12 [Compound 2 s, 2‐Methyl‐4‐[(methylsulfonyl)amino]‐N‐[(1R)‐1‐naphth‐1‐ylethyl]benzamide]
SARS‐CoV PL^pro
  IC50: 4.8 ± 0.3 µM
SARS‐CoV‐2 PL^pro
  IC50: 10 ± 1 µM

## CNS(=O)(=O)c1ccc(C)c(C(=O)N[C@H](C)c2cccc3ccccc23)c1 [Compound 2 t, 2‐Methyl‐5‐(methylsulfamoyl)‐N‐[(1R)‐1‐naphth‐1‐ylethyl]benzamide]
SARS‐CoV PL^pro
  IC50: 4 ± 0.3 µM
other
  melting point: 184 °C
SARS‐CoV‐2 PL^pro; [1]
  inhibition at 100 µM: 87%

## Cc1ccccc1C(=O)NC(C)c1ccccc1 (stereo not shown) [Compound 4 a, 2‐Methyl‐N‐(1‐phenyl)benzamide]
SARS‐CoV PL^pro; [2]
  inhibition at 100 µM: < 50%

## Cc1ccccc1C(=O)NC(c1ccccc1)c1ccccc1 [Compound 4 c, N ‐(Diphenylmethyl)‐2‐methylbenzamide]
SARS‐CoV PL^pro
  Inhibition of SARS‐CoV PL^pro, in words: inactive
SARS‐CoV PL^pro; [2]
  inhibition at 100 µM: < 50%

## Cc1ccccc1C(=O)N[C@@H](C)c1cccc2ccccc12 [Compound 4 d, 2‐Methyl‐N‐[(1S)‐1‐naphth‐1‐ylethyl]benzamide]
SARS‐CoV PL^pro; [2]
  inhibition at 100 µM: < 50%
SARS‐CoV‐2 PL^pro
  Inhibition of SARS‐CoV‐2 PL^pro, in words: not show inhibitory activity
SARS‐CoV‐2 PL^pro; [3]
  inhibition at 100 µM: < 50%

## Cc1ccccc1C(=O)NC(CO)c1cccc2ccccc12 (stereo not shown) [Compound 8, N ‐(2‐Hydroxy‐1‐naphth‐1‐ylethyl)‐2‐methylbenzamide]
SARS‐CoV PL^pro
  Inhibition of SARS‐CoV PL^pro, in words: inactivity
SARS‐CoV PL^pro; [2]
  inhibition at 100 µM: < 50%

## Cc1ccccc1NC(=O)C(C)c1cccc2ccccc12 (stereo not shown) [Compound 11 a, N ‐(2‐Methylphenyl)‐2‐naphth‐1‐ylpropanamide]
SARS‐CoV PL^pro; [2]
  inhibition at 100 µM: < 50%
other
  melting point: 151 °C
SARS‐CoV‐2 PL^pro
  Inhibition of SARS‐CoV‐2 PL^pro, in words: not show inhibitory activity
SARS‐CoV‐2 PL^pro; [3]
  inhibition at 100 µM: < 50%

## CC(C(=O)Nc1ccccc1F)c1cccc2ccccc12 (stereo not shown) [Compound 11 b, N ‐(2‐Fluorphenyl)‐2‐naphth‐1‐ylpropanamide]
SARS‐CoV PL^pro; [2]
  inhibition at 100 µM: < 50%
other
  melting point: 116 °C
SARS‐CoV‐2 PL^pro; [3]
  inhibition at 100 µM: < 50%

## CC(C(=O)Nc1ccc(S(N)(=O)=O)cc1)c1cccc2ccccc12 (stereo not shown) [Compound 11 c, 2‐Naphth‐1‐yl‐N‐(4‐sulfamoylphenyl)propanamide]
SARS‐CoV PL^pro; [2]
  inhibition at 100 µM: < 50%
other
  melting point: 206 °C
SARS‐CoV‐2 PL^pro; [3]
  inhibition at 100 µM: < 50%

## CC(C(=O)NC1CCCCC1)c1cccc2ccccc12 (stereo not shown) [Compound 11 d, N ‐Cyclohexyl‐2‐naphth‐1‐ylpropanamide]
SARS‐CoV PL^pro; [2]
  inhibition at 100 µM: < 50%
other
  melting point: 151 °C
SARS‐CoV‐2 PL^pro; [3]
  inhibition at 100 µM: < 50%

## Cc1cccc2c1CN([C@H](C)c1cccc3ccccc13)C2.Cl [Compound 14 a, 4‐Methyl‐2‐[(1R)‐1‐naphth‐1‐ylethyl]‐2,3‐dihydro‐1H‐isoindol hydrochloride]
SARS‐CoV PL^pro; [4]
  inhibition at 10 µM: 45%
other
  melting point: 247 °C
SARS‐CoV‐2 PL^pro; [5]
  inhibition at 100 µM: < 50%

## c1ccc2c(c1)CN(Cc1cccc3ccccc13)C2 [Compound 14 c, 2‐(Naphth‐1‐ylmethyl)‐2,3‐dihydro‐1H‐isoindol hydrochloride]
SARS‐CoV PL^pro; [6]
  inhibition at 100 µM: < 50%

## COc1ccc2c(c1)CN([C@H](C)c1cccc3ccccc13)C2 [Compound 14 d, 5‐Methoxy‐2‐[(1R)‐1‐naphth‐1‐ylethyl]‐2,3‐dihydro‐1H‐isoindol]
SARS‐CoV PL^pro
  IC50: 14 ± 1 µM
SARS‐CoV‐2 PL^pro; [5]
  inhibition at 100 µM: < 50%

## C[C@H](c1cccc2ccccc12)N1Cc2cccc([N+](=O)[O-])c2C1 [Compound 14 e, 2‐[(1R)‐1‐Naphth‐1‐ylethyl]‐4‐nitro‐2,3‐dihydro‐1H‐isoindole]
SARS‐CoV PL^pro
  Inhibition of SARS‐CoV PL^pro, in words: Inactive
SARS‐CoV PL^pro; [4]
  inhibition at 10 µM: < 50%

## C[C@H](c1cccc2ccccc12)N1Cc2ccc([N+](=O)[O-])cc2C1 [Compound 14 f, 2‐[(1R)‐1‐Naphth‐1‐ylethyl]‐5‐nitro‐2,3‐dihydro‐1H‐isoindole]
SARS‐CoV PL^pro
  Inhibition of SARS‐CoV PL^pro, in words: Inactive
SARS‐CoV PL^pro; [6]
  inhibition at 100 µM: < 50%

## C[C@H](c1cccc2ccccc12)N1Cc2ccccc2C1.Cl [Compound 14 h, 2‐[(1R)‐1‐Naphth‐1‐ylethyl]‐2,3‐dihydro‐1H‐isoindol hydrochloride]
SARS‐CoV PL^pro
  IC50: 2.9 ± 0.2 µM
In vitro
  CC50: 442 ± 1.37 µM
SARS‐CoV‐2
  SI (selectivity index): 56.3
  EC50: 7.85 ± 1.5 µM
SARS‐CoV‐2 PL^pro
  IC50: 7.6 ± 0.2 µM

## C[C@@H](c1cccc2ccccc12)N1Cc2ccccc2C1.Cl [Compound 14 i, 2‐[(1S)‐1‐Naphth‐1‐ylethyl]‐2,3‐dihydro‐1H‐isoindol hydrochloride]
SARS‐CoV PL^pro
  Inhibition of SARS‐CoV PL^pro, in words: abolished activity
SARS‐CoV PL^pro; [6]
  inhibition at 100 µM: < 50%
SARS‐CoV‐2 PL^pro
  Inhibition of SARS‐CoV‐2 PL^pro, in words: not show inhibitory activity
SARS‐CoV‐2 PL^pro; [5]
  inhibition at 100 µM: < 50%

## C[C@H](c1cccc2ccccc12)N1Cc2cccc(N)c2C1 [Compound 14 j, 2‐[(1R)‐1‐Naphth‐1‐ylethyl]‐2,3‐dihydro‐1H‐isoindol‐4‐amine]
SARS‐CoV PL^pro
  IC50: 32 ± 2 µM
SARS‐CoV‐2 PL^pro; [5]
  inhibition at 100 µM: < 50%

## C[C@H](c1cccc2ccccc12)N1Cc2ccc(N)cc2C1 [Compound 14 k, 2‐[(1R)‐1‐Naphth‐1‐ylethyl]‐2,3‐dihydro‐1H‐isoindol‐5‐amine]
SARS‐CoV PL^pro
  IC50: 4.9 ± 0.3 µM
In vitro
  CC50: > 500 µM
SARS‐CoV‐2; SARS‐CoV‐2, Vero E6 cells
  Activity in the viral replication assay, in words: completely inactive
SARS‐CoV‐2 PL^pro
  IC50: 57 ± 1 µM

## C[C@H](c1cccc2ccccc12)N1Cc2ccc(O)cc2C1 [Compound 14 l, 2‐[(1R)‐1‐Naphth‐1‐ylethyl]‐2,3‐dihydro‐1H‐isoindol‐5‐ol hydrochloride]
SARS‐CoV PL^pro
  IC50: 4.5 ± 0.4 µM

## Cc1ccccc1CN[C@H](C)c1cccc2ccccc12 [Compound 17, (1R)‐N‐(2‐Methylbenzyl)‐1‐naphth‐1‐ylethylamine hydrochloride]
SARS‐CoV PL^pro; [4]
  inhibition at 100 µM: 55%

— publication PMC7894572 (Chemmedchem, 2020)
